Like-named read-outs stand apart in the source and are kept apart here.
Tests used:
[1] = Cytotoxicity in HepG2 cells, Resazurin assay; conditions: human, HepG2 cells, TOX-HepG2-4 d CC50 (μM), HepG2 cells incubated for 4 days, viability by Resazurin assay
HBV = test: anti HBV activity, HepG2.117 cell line, intracellular HBV DNA by realtime PCR; format: cell-based; conditions: HepG2.117 cell line (Tet-off), 3 days of treatment, intracellular HBV DNA quantified by realtime PCR, read-out: HBV-AVE-HepG2.117 EC50
In short: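 Readout was intracellular HBV DNA by real-time PCR (HBV-specific primers and probe) after 3 days of compound exposure. Serial dilutions were tested in duplicate on HepG2.117 cells, a stable inducible HBV producer in which replication is switched on when doxycycline is absent.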

[2] = Hepatitis B virus, HepG2.117, 72 h

| Compound | melting point [°C] | CC50 at 4 days [1] [µM] | EC50 (HBV; [2]) [nM] | EC50 (HBV) [nM] |
| --- | --- | --- | --- | --- |
| Cn1cc2c(c1C(=O)Nc1ccc(F)c(F)c1)OC[C@H](C(O)C1CC1)NS2(=O)=O (some centres unmarked) | 244.8 |  |  |  |
| Cn1cc2c(c1C(=O)Nc1ccc(F)c(C(F)F)c1)OC[C@H](C(O)C1CC1)NS2(=O)=O (some centres unmarked) | 240.7 |  |  |  |
| Cn1cc2c(c1C(=O)Nc1ccc(F)c(C#N)c1)OC[C@H](C(O)C1CC1)NS2(=O)=O (some centres unmarked) | 233.9 |  |  |  |
| CCC(O)[C@H]1COc2c(cn(C)c2C(=O)Nc2ccc(F)c(C#N)c2)S(=O)(=O)N1 (some centres unmarked) | 252.2 |  |  |  |
| CCC(O)[C@H]1COc2c(cn(C)c2C(=O)Nc2ccc(F)c(C(F)F)c2)S(=O)(=O)N1 (some centres unmarked) | 224.5 |  |  |  |
| CC(NCC(F)(F)F)C1CCc2c(cn(C)c2C(=O)Nc2cc(F)c(F)c(F)c2)S(=O)(=O)N1 (centres unmarked) | 216.2 |  |  |  |
| CC1C=Cc2c(csc2C(=O)Nc2ccc(F)c(F)c2)S(=O)(=O)N1 (centres unmarked) | 220.8 |  |  |  |
| CC(C)C(O)C1COc2c(cn(C)c2C(=O)Nc2ccc(F)c(F)c2)S(=O)(=O)N1 (racemic) | 247.3 |  |  |  |
| CC(C)C(O)C1COc2c(cn(C)c2C(=O)Nc2ccc(F)c(C#N)c2)S(=O)(=O)N1 (racemic) | 213.7 |  |  |  |
| Cc1cccc(CC2(C)COc3c(cn(C)c3C(=O)Nc3ccc(F)c(F)c3)S(=O)(=O)N2)n1 (racemic) [Compound 172, N-(3,4-difluorophenyl)-3,7-dimethyl-3-[(6-methyl-2-pyridyl)methyl]-1,1-dioxo-2,4-dihydropyrrolo[3,4-b][1,4,5]oxathiazepine-6-carboxamide] | 206 | > 25 | 74 |  |
| Cc1cccc(C2(C)COc3c(cn(C)c3C(=O)Nc3ccc(F)c(C(F)F)c3)S(=O)(=O)N2)n1 (racemic) [Compound 177, N-[3-(difluoromethyl)-4-fluoro-phenyl]-3,7-dimethyl-3-(6-methyl-2-pyridyl)-1,1-dioxo-2,4-dihydropyrrolo[3,4-b][1,4,5]oxathiazepine-6-carboxamide] | 210.2 | > 25 | 8 |  |
| Cn1cc2c(c1C(=O)Nc1ccc(F)c(F)c1)OCC(C)(Cc1cccnc1)NS2(=O)=O (racemic) [Compound 199, N-(3,4-difluorophenyl)-3,7-dimethyl-1,1-dioxo-3-(3-pyridylmethyl)-2,4-dihydropyrrolo[3,4-b][1,4,5]oxathiazepine-6-carboxamide] | 268.3 | > 25 | 15 |  |
| Cn1cc2c(c1C(=O)Nc1ccc(F)c(F)c1)OCC(C)(c1cnccn1)NS2(=O)=O (single isomer, unassigned) [Compound 145a, N-(3,4-difluorophenyl)-3,7-dimethyl-1,1-dioxo-3-pyrazin-2-yl-2,4-dihydropyrrolo[3,4-b][1,4,5]oxathiazepine-6-carboxamide] | 199.4 | > 25 |  | 14 |
| Cn1cc2c(c1C(=O)Nc1ccc(F)c(F)c1)OCC(C)(c1ncccn1)NS2(=O)=O (single isomer, unassigned) [Compound 153a, N-(3,4-difluorophenyl)-3,7-dimethyl-1,1-dioxo-3-pyrimidin-2-yl-2,4-dihydropyrrolo[3,4-b][1,4,5]oxathiazepine-6-carboxamide] | 228.3 | > 25 |  | > 125 |
| Cn1cc2c(c1C(=O)Nc1ccc(F)c(F)c1)OCC(C)(c1ncco1)NS2(=O)=O (single isomer, unassigned) [Compound 160a, N-(3,4-difluorophenyl)-3,7-dimethyl-3-oxazol-2-yl-1,1-dioxo-2,4-dihydropyrrolo[3,4-b][1,4,5]oxathiazepine-6-carboxamide] | 239.5 | > 25 |  | 77 |
| Cc1cccc(C2(C)COc3c(cn(C)c3C(=O)Nc3ccc(F)c(F)c3)S(=O)(=O)N2)n1 (single isomer, unassigned) [Compound 168a, N-(3,4-difluorophenyl)-3,7-dimethyl-3-(6-methyl-2-pyridyl)-1,1-dioxo-2,4-dihydropyrrolo[3,4-b][1,4,5]oxathiazepine-6-carboxamide] | 221.9 | > 25 |  | > 125 |
| Cn1ccc(C2(C)COc3c(cn(C)c3C(=O)Nc3ccc(F)c(F)c3)S(=O)(=O)N2)n1 (single isomer, unassigned) [Compound 192a, N-(3,4-difluorophenyl)-3,7-dimethyl-3-(1-methylpyrazol-3-yl)-1,1-dioxo-2,4-dihydropyrrolo[3,4-b][1,4,5]oxathiazepine-6-carboxamide] | 208.7 | > 25 | 36 |  |

| Compound | melting point [°C] | CC50 at 4 days [1] [µM] | EC50 (HBV; [2]) [nM] | EC50 (HBV) [nM] |
| --- | --- | --- | --- | --- |
| CCC(O)[C@@H]1COc2c(cn(C)c2C(=O)Nc2ccc(F)c(F)c2)S(=O)(=O)N1 (stereo in doubt) | 212.6 |  |  |  |
| CCC(O)[C@@H]1COc2c(cn(C)c2C(=O)Nc2ccc(F)c(C(F)F)c2)S(=O)(=O)N1 (stereo in doubt) | 224.6 |  |  |  |
| Cc1cc(NC(=O)c2c3c(cn2C)S(=O)(=O)N[C@@H](C(O)C2CC2)CO3)ccc1F (stereo in doubt) | 234.7 |  |  |  |
| Cn1cc2c(c1C(=O)Nc1ccc(F)c(Cl)c1)OC[C@H](C(O)C1CC1)NS2(=O)=O (stereo in doubt) | 215.8 |  |  |  |
| CC(N)[C@H]1CCc2c(cn(C)c2C(=O)Nc2cc(F)c(F)c(F)c2)S(=O)(=O)N1 (stereo in doubt) | 281.2 |  |  |  |
| CCC(O)[C@@H]1COc2c(cn(C)c2C(=O)Nc2ccc(F)c(C#N)c2)S(=O)(=O)N1 (stereo in doubt) [Compound 163, N-(3-cyano-4-fluoro-phenyl)-3-(1-hydroxypropyl)-7-methyl-1,1-dioxo-3,4-dihydro-2H-pyrrolo[3,4-b][1,4,5]oxathiazepine-6-carboxamide] | 247 | > 25 | > 125 |  |
| Cn1cc2c(c1C(=O)Nc1ccc(F)c(F)c1)C=CC(C(F)(F)F)NS2(=O)=O (centres unmarked) [Compound 8, N-(3,4-difluorophenyl)-7-methyl-1,1-dioxo-3-(trifluoromethyl)-2,3-dihydropyrrolo[3,4-f]thiazepine-6-carboxamide] | 245.6 | > 25 | 47 |  |
| Cn1cc2c(c1C(=O)Nc1ccc(F)c(F)c1)C=CCNS2(=O)=O [Compound 9, N-(3,4-difluorophenyl)-7-methyl-1,1-dioxo-2,3-dihydropyrrolo[3,4-f]-thiazepine-6-carboxamide] | 221.9 | > 25 | 36 |  |
| Cn1cc2c(c1C(=O)Nc1ccc(F)c(F)c1)CC(O)CNS2(=O)=O (centres unmarked) [Compound 68, N-(3,4-difluorophenyl)-4-hydroxy-7-methyl-1,1-dioxo-2,3,4,5-tetrahydropyrrolo[3,4-f]thiazepine-6-carboxamide] | 229 | > 25 | 230 |  |
| Cn1cc2c(c1C(=O)Nc1ccc(F)c(F)c1)OC[C@@H](C(C)(C)O)NS2(=O)=O [Compound 94, (3S)—N-(3,4-difluorophenyl)-3-(1-hydroxy-1-methyl-ethyl)-7-methyl-1,1-dioxo-3,4-dihydro-2H-pyrrolo[3,4-b][1,4,5]oxathiazepine-6-carboxamide] | 234.1 | > 25 | 80 |  |
| C[C@H](O)[C@H]1C=Cc2c(cn(C)c2C(=O)Nc2ccc(F)c(C(F)F)c2)S(=O)(=O)N1 [Compound 96, (3R)—N-[3-(difluoromethyl)-4-fluoro-phenyl]-3-[(1S)-1-hydroxyethyl]-7-methyl-1,1-dioxo-2,3-dihydropyrrolo[3,4-f]thiazepine-6-carboxamide] | 182.3 | > 25 | 5 |  |
| C[C@H](O)[C@H]1C=Cc2c(cn(C)c2C(=O)Nc2cc(F)c(F)c(F)c2)S(=O)(=O)N1 [Compound 98, (3R)-3-[(1S)-1-hydroxyethyl]-7-methyl-1,1-dioxo-N-(3,4,5-trifluorophenyl)-2,3-dihydropyrrolo[3,4-f]thiazepine-6-carboxamide] | 244 | > 25 | 8 |  |
| Cn1cc2c(c1C(=O)Nc1ccc(F)c(C(F)F)c1)OC[C@@H](C(C)(C)O)NS2(=O)=O [Compound 101, (3S)—N-[3-(difluoromethyl)-4-fluoro-phenyl]-3-(1-hydroxy-1-methyl-ethyl)-7-methyl-1,1-dioxo-3,4-dihydro-2H-pyrrolo[3,4-b][1,4,5]oxathiazepine-6-carboxamide] | 214.4 | > 25 | 14 |  |
| Cn1cc2c(c1C(=O)Nc1ccc(F)c(F)c1)CC[C@H](C(C)(C)O)NS2(=O)=O [Compound 102, (3R)—N-(3,4-difluorophenyl)-3-(1-hydroxy-1-methyl-ethyl)-7-methyl-1,1-dioxo-2,3,4,5-tetrahydropyrrolo[3,4-f]thiazepine-6-carboxamide] | 218.2 | > 25 | 9 |  |
| C[C@H](O)[C@H]1CCc2c(cn(C)c2C(=O)Nc2ccc(F)c(C(F)F)c2)S(=O)(=O)N1 [Compound 103, (3R)—N-[3-(difluoromethyl)-4-fluoro-phenyl]-3-[(1S)-1-hydroxyethyl]-7-methyl-1,1-dioxo-2,3,4,5-tetrahydropyrrolo[3,4-f]thiazepine-6-carboxamide] | 274.7 | > 25 | 6 |  |
| Cn1cc2c(c1C(=O)Nc1ccc(F)c(C#N)c1)OC[C@H](C(C)(C)O)NS2(=O)=O [Compound 106, (3R)—N-(3-cyano-4-fluoro-phenyl)-3-(1-hydroxy-1-methyl-ethyl)-7-methyl-1,1-dioxo-3,4-dihydro-2H-pyrrolo[3,4-b][1,4,5]oxathiazepine-6-carboxamide] | 260.1 | > 25 | 8 |  |

— US10875876B2, “Cyclized sulfamoylarylamide derivatives and the use thereof as medicaments for the treatment of hepatitis B” (priority 2015, dated 2020)
